The molecules below were run against CB1 (CNR1) (Homo sapiens, UniProt P21554) (assay: cAMP CNR1 Hunter cell line antagonist assay (CB1 assay)). Conditions: antagonist mode, cAMP CNR1 Hunter cells, EC80 agonist; read-out: CB1 assay, Efficacy (IC50).
Assay type: cell-based
How it was run: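 Antagonist mode in CNR1 Hunter cells: compound preincubated 30 min at 37 °C, then EC80 agonist for 30 min at 37 °C. cAMP measured by enzyme-fragment complementation chemiluminescence after lysis (1 h) and detection (3 h, room temperature); IC50 fitted from the dose response.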

Chain of CB1 (CNR1) (P21554 whole entry): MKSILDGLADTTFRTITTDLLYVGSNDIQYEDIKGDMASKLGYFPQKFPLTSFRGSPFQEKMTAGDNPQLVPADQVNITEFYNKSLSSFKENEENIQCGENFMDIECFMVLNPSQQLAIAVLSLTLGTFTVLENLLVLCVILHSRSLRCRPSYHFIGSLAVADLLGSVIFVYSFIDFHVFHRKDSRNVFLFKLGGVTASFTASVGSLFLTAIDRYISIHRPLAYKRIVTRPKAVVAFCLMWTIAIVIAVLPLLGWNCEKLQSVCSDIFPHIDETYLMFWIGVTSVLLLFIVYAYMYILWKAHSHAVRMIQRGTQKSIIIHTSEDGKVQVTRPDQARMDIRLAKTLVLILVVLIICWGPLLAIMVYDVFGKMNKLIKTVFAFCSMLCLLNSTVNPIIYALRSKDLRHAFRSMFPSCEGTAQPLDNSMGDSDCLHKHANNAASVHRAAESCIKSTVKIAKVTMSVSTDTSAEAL

Row | SMILES | IC50
1 | CCS(=O)(=O)c1cc2c(c(S(=O)(=O)Nc3ccc(OC(F)(F)F)cc3)c1)OCC(=O)N2 [BC19435] | ≥ 25 µM
2 | CC(C)CC1Oc2cc(S(=O)(=O)Nc3cccc(F)c3)c(Br)cc2NC1=O (centres unmarked) [BC19774] | ≥ 25 µM
3 | CCc1ccc(NS(=O)(=O)c2cc(Br)cc3c2OCCC(=O)N3)cc1 [BC19686] | 1 to 25 µM
4 | O=C1NCCOc2c1cc(Br)cc2S(=O)(=O)Nc1ccc(F)cc1F [BC19608] | ≥ 25 µM
5 | O=C1COc2c(cc(Br)cc2S(=O)(=O)Nc2ccc(C(F)(F)F)cc2Cl)N1 [BC19384] | ≥ 25 µM
6 | CC1Oc2c(cc(Cl)cc2S(=O)(=O)Nc2ccc(F)cc2)NC1=O (centres unmarked) [BC19722] | 1 to 25 µM
7 | CC1Oc2cc(S(=O)(=O)Nc3ccc(F)cc3Cl)c(Br)cc2NC1=O (centres unmarked) [BC19285] | 1 to 25 µM
8 | CCS(=O)(=O)c1cc2c(c(S(=O)(=O)Nc3ccc(C#N)cc3)c1)OCC(=O)N2 [BC19548] | ≥ 25 µM
9 | CCOc1ccc(NS(=O)(=O)c2cc3c(cc2Cl)NC(=O)C(C)O3)cc1 (centres unmarked) [BC19281] | ≥ 25 µM
10 | CC1Oc2cc(S(=O)(=O)Nc3ccc(C(C)C)cc3)c(Cl)cc2NC1=O (centres unmarked) [BC19704] | ≥ 25 µM
11 | CCc1cccc(NS(=O)(=O)c2cc(Br)cc3c2OC(C)C(=O)N3C)c1 (centres unmarked) [BC19900] | ≥ 25 µM
12 | Cc1ccc(NS(=O)(=O)c2cc(Br)cc3c2OC(C)C(=O)N3C)cc1Cl (centres unmarked) [BC19796] | 1 to 25 µM
13 | CCC1Oc2c(cc(Br)cc2S(=O)(=O)NCc2ccccc2)NC1=O (centres unmarked) [BC19230] | ≥ 25 µM
14 | CCC1Oc2cc(S(=O)(=O)Nc3cccc(SC)c3)c(Cl)cc2NC1=O (centres unmarked) [BC19213] | ≥ 25 µM
15 | CCC1Oc2c(cc(Br)cc2S(=O)(=O)Nc2cccc(F)c2)NC1=O (centres unmarked) [BC19231] | ≥ 25 µM
16 | CCc1ccc(NS(=O)(=O)c2cc(Br)cc3c2OC(CC(C)C)C(=O)N3)cc1 (centres unmarked) [BC19763] | 1 to 25 µM
17 | CCC1Oc2c(cc(Br)cc2S(=O)(=O)Nc2ccc(Cl)cc2)NC1=O (centres unmarked) [BC19290] | ≥ 25 µM
18 | O=C1COc2cc(S(=O)(=O)Nc3ccc(F)cc3F)c(Br)cc2N1 [BC19166] | < 1 µM
19 | CCC1Oc2c(cc(Cl)cc2S(=O)(=O)Nc2ccc(F)cc2Cl)NC1=O (centres unmarked) [BC19756] | 1 to 25 µM
20 | COc1ccc(NS(=O)(=O)c2cc(Cl)cc3c2OC(C)C(=O)N3)cc1Cl (centres unmarked) [BC19292] | 1 to 25 µM
21 | CC(C)CC1Oc2c(cc(Br)cc2S(=O)(=O)Nc2ccc(OC(F)(F)F)cc2)NC1=O (centres unmarked) [BC19757] | ≥ 25 µM
22 | CC1Oc2c(cc(Br)cc2S(=O)(=O)N2CCN(C)CC2)NC1=O (centres unmarked) [BC19228] | 1 to 25 µM
23 | O=C1NCCOc2c1cc(Br)cc2S(=O)(=O)Nc1ccccc1 [BC19553] | ≥ 25 µM

Row | SMILES | IC50
24 | CCC1Oc2c(cc(Br)cc2S(=O)(=O)Nc2ccc(OC)cc2)N(C)C1=O (centres unmarked) [BC19935] | ≥ 25 µM
25 | CC(C)CNS(=O)(=O)c1cc(Br)cc2c1OC(C)C(=O)N2 (centres unmarked) [BC19227] | ≥ 25 µM
26 | CCC1Oc2cc(S(=O)(=O)Nc3ccc(Cl)cc3)c(Br)cc2NC1=O (centres unmarked) [BC19286] | ≥ 25 µM
27 | CC1Oc2c(cc(Br)cc2S(=O)(=O)NCc2ccc(C(F)(F)F)cc2)NC1=O (centres unmarked) [BC19365] | 1 to 25 µM
28 | CS(=O)(=O)c1cc2c(c(S(=O)(=O)Nc3ccc(F)cc3)c1)OCC(=O)N2 [BC19430] | ≥ 25 µM
29 | COc1ccc(NS(=O)(=O)c2cc3c(cc2Br)N(C)C(=O)C(C)O3)cc1Cl (centres unmarked) [BC19919] | ≥ 25 µM
30 | O=C1CCOc2cc(S(=O)(=O)Nc3ccc(OC(F)(F)F)cc3)c(Br)cc2N1 [BC19652] | ≥ 25 µM
31 | CCS(=O)(=O)c1cc2c(c(S(=O)(=O)Nc3ccc(C)c(Cl)c3)c1)OCC(=O)N2 [BC19544] | ≥ 25 µM
32 | CC1Oc2c(cc(Cl)cc2S(=O)(=O)Nc2ccccc2)NC1=O (centres unmarked) [BC19291] | ≥ 25 µM
33 | COc1ccc(NS(=O)(=O)c2cc3c(cc2Br)N(C)C(=O)C(C)O3)cc1 (centres unmarked) [BC19795] | ≥ 25 µM
34 | CC1Oc2c(cc(Br)cc2S(=O)(=O)NCc2ccc(OC(F)(F)F)cc2)NC1=O (centres unmarked) [BC19363] | 1 to 25 µM
35 | CC1Oc2cc(S(=O)(=O)Nc3ccc(F)c(F)c3)c(Br)cc2N(C)C1=O (centres unmarked) [BC19788] | 1 to 25 µM
36 | Cc1c(Cl)cc2c(c1S(=O)(=O)Nc1ccc(OC(F)(F)F)cc1)OCC(=O)N2 [BC19490] | ≥ 25 µM
37 | CC(C)NC(=O)N1c2cc(S(=O)(=O)N3CCCC3)ccc2NC(=O)C1C (centres unmarked) [BC19298] | ≥ 25 µM
38 | CCc1ccc(NS(=O)(=O)c2cc3c(cc2Br)NC(=O)CCO3)cc1 [BC19690] | < 1 µM
39 | CCc1cccc(NS(=O)(=O)c2cc(Br)cc3c2OCCNC3=O)c1 [BC19609] | 1 to 25 µM
40 | CS(=O)(=O)c1cc2c(c(S(=O)(=O)Nc3ccc(F)c(F)c3)c1)OCC(=O)N2 [BC19481] | ≥ 25 µM
41 | CNC(=O)N1CC(=O)Nc2ccc(S(=O)(=O)N3CCCC3)cc21 [BC19183] | 1 to 25 µM
42 | CCc1cccc(NS(=O)(=O)c2cc3c(cc2Br)NC(=O)C(C)O3)c1 (centres unmarked) [BC19283] | 1 to 25 µM
43 | Cc1ccc(NS(=O)(=O)c2cc3c(cc2Br)NC(=O)CCO3)cc1 [BC19661] | < 1 µM
44 | CC1Oc2cc(S(=O)(=O)Nc3ccc(F)c(F)c3)c(Cl)cc2NC1=O (centres unmarked) [BC19698] | ≥ 25 µM
45 | CC(=O)c1cccc(NS(=O)(=O)c2cc3c(cc2C)NC(=O)CO3)c1 [BC19132] | ≥ 25 µM
46 | O=C1CCOc2cc(S(=O)(=O)Nc3cccc(Cl)c3)c(Br)cc2N1 [BC19655] | ≥ 25 µM

Row | SMILES | IC50
47 | CCC1Oc2cc(S(=O)(=O)Nc3cccc(Cl)c3)c(Br)cc2NC1=O (centres unmarked) [BC19221] | 1 to 25 µM
48 | Cc1ccc(NS(=O)(=O)c2cc(Br)cc3c2OCCC(=O)N3)cc1Cl [BC19651] | ≥ 25 µM
49 | CN1CC(=O)Nc2ccc(S(=O)(=O)N3CCCC3)cc21 [BC19181] | ≥ 25 µM
50 | CCS(=O)(=O)c1cc2c(c(S(=O)(=O)Nc3ccc(C(C)C)cc3)c1)OCC(=O)N2 [BC19493] | ≥ 25 µM
51 | CC1Oc2c(cc(Br)cc2S(=O)(=O)Nc2ccc(F)cc2Cl)N(C)C1=O (centres unmarked) [BC19908] | ≥ 25 µM
52 | CC(C)CC1Oc2c(cc(Br)cc2S(=O)(=O)Nc2ccc(F)cc2)NC1=O (centres unmarked) [BC19781] | 1 to 25 µM
53 | O=C1CCOc2c(cc(Br)cc2S(=O)(=O)Nc2cccc(F)c2)N1 [BC19649] | ≥ 25 µM
54 | CCc1ccc(NS(=O)(=O)c2cc(Cl)cc3c2OC(C)C(=O)N3)cc1 (centres unmarked) [BC19703] | 1 to 25 µM
55 | CCC1Oc2cc(S(=O)(=O)Nc3ccc(C)cc3)c(Br)cc2NC1=O (centres unmarked) [BC19224] | ≥ 25 µM
56 | Cc1ccc(Cl)cc1NS(=O)(=O)c1cc2c(cc1Cl)NC(=O)CO2 [BC19162] | < 1 µM
57 | O=C1COc2c(cc(Br)cc2S(=O)(=O)NC2CCC(O)CC2)N1 (centres unmarked) [BC19381] | ≥ 25 µM
58 | CC(C)CNS(=O)(=O)c1cc2c(cc1Br)NC(=O)C(C)O2 (centres unmarked) [BC19218] | 1 to 25 µM
59 | CCC1Oc2c(cc(Br)cc2S(=O)(=O)NC2CCCCC2)NC1=O (centres unmarked) [BC19233] | ≥ 25 µM
60 | CC1Oc2c(cc(Cl)cc2S(=O)(=O)Nc2ccc(F)cc2Cl)NC1=O (centres unmarked) [BC19720] | ≥ 25 µM
61 | CCc1ccc(NS(=O)(=O)c2cc3c(cc2Cl)NC(=O)C(C)O3)cc1 (centres unmarked) [BC19702] | ≥ 25 µM
62 | Cc1ccc(NS(=O)(=O)c2cc3c(cc2Br)N(C)C(=O)C(C)O3)cc1Cl (centres unmarked) [BC19797] | ≥ 25 µM
63 | CCC1Oc2c(cc(Br)cc2S(=O)(=O)Nc2ccc(Cl)cc2)N(C)C1=O (centres unmarked) [BC19929] | ≥ 25 µM
64 | Cc1ccc(NS(=O)(=O)c2cc3c(cc2Br)NC(=O)CCO3)cc1Cl [BC19659] | ≥ 25 µM
65 | CC1Oc2c(cc(Br)cc2S(=O)(=O)Nc2ccc(Cl)cc2)N(C)C1=O (centres unmarked) [BC19791] | ≥ 25 µM
66 | CCS(=O)(=O)c1cc2c(c(S(=O)(=O)Nc3ccc(OC)c(Cl)c3)c1)OCC(=O)N2 [BC19547] | ≥ 25 µM
67 | CCC1Oc2c(cc(Br)cc2S(=O)(=O)Nc2ccc(C)c(Cl)c2)N(C)C1=O (centres unmarked) [BC19937] | ≥ 25 µM
68 | CCC1Oc2cc(S(=O)(=O)NCc3ccc(F)cc3F)c(Br)cc2NC1=O (centres unmarked) [BC19368] | ≥ 25 µM
69 | Cc1c(Cl)cc2c(c1S(=O)(=O)Nc1ccc(Cl)cc1)OCC(=O)N2 [BC19434] | ≥ 25 µM

Row | SMILES | IC50
70 | CCC1Oc2cc(S(=O)(=O)NCCc3ccc(OC(F)(F)F)cc3)c(Br)cc2NC1=O (centres unmarked) [BC19373] | ≥ 25 µM
71 | CC1Oc2c(cc(Br)cc2S(=O)(=O)Nc2ccc(C(C)C)cc2)N(C)C1=O (centres unmarked) [BC19793] | ≥ 25 µM
72 | CC1Oc2cc(S(=O)(=O)NC3CCC(C(C)(C)C)CC3)c(Br)cc2NC1=O (centres unmarked) [BC19361] | 1 to 25 µM
73 | CCC1Oc2cc(S(=O)(=O)Nc3ccc(OC)cc3)c(Br)cc2N(C)C1=O (centres unmarked) [BC19936] | ≥ 25 µM
74 | CC1Oc2c(cc(Cl)cc2S(=O)(=O)Nc2ccc(F)cc2F)NC1=O (centres unmarked) [BC19710] | ≥ 25 µM
75 | CCC1Oc2cc(S(=O)(=O)Nc3ccc(OC(F)(F)F)cc3)c(Cl)cc2NC1=O (centres unmarked) [BC19733] | 1 to 25 µM
76 | CCC1Oc2cc(S(=O)(=O)Nc3ccc(C(C)C)cc3)c(Cl)cc2NC1=O (centres unmarked) [BC19210] | < 1 µM
77 | CC1Oc2c(cc(Br)cc2S(=O)(=O)NCCc2ccc(OC(F)(F)F)cc2)NC1=O (centres unmarked) [BC19364] | 1 to 25 µM
78 | O=C1COc2cc(S(=O)(=O)NCc3ccc(F)cc3F)c(Br)cc2N1 [BC19393] | ≥ 25 µM
79 | CC1C(=O)Nc2ccc(S(=O)(=O)N3CCCC3)cc2N1C (centres unmarked) [BC19296] | 1 to 25 µM
80 | CCc1cccc(NS(=O)(=O)c2cc3c(cc2Br)N(C)C(=O)C(C)O3)c1 (centres unmarked) [BC19901] | ≥ 25 µM
81 | CC1Oc2cc(S(=O)(=O)NCc3ccc(F)cc3F)c(Br)cc2NC1=O (centres unmarked) [BC19356] | ≥ 25 µM
82 | CC(C)CC1Oc2cc(S(=O)(=O)Nc3ccc(OC(F)(F)F)cc3)c(Br)cc2NC1=O (centres unmarked) [BC19758] | ≥ 25 µM
83 | CCC1Oc2cc(S(=O)(=O)Nc3ccccc3)c(Br)cc2N(C)C1=O (centres unmarked) [BC19928] | ≥ 25 µM
84 | CCS(=O)(=O)c1cc2c(c(S(=O)(=O)Nc3ccc(F)cc3Cl)c1)OCC(=O)N2 [BC19442] | ≥ 25 µM
85 | CCC1Oc2cc(S(=O)(=O)Nc3ccc(Cl)cc3)c(Cl)cc2NC1=O (centres unmarked) [BC19739] | 1 to 25 µM
86 | CCC1Oc2cc(S(=O)(=O)Nc3cccc(C(C)=O)c3)c(Cl)cc2NC1=O (centres unmarked) [BC19282] | 1 to 25 µM
87 | Cc1ccc(NS(=O)(=O)c2cc3c(cc2Cl)NC(=O)C(C)O3)cc1F (centres unmarked) [BC19700] | 1 to 25 µM
88 | COc1ccc(NS(=O)(=O)c2cc(S(C)(=O)=O)cc3c2OCC(=O)N3)cc1Cl [BC19429] | ≥ 25 µM
89 | CCC1Oc2cc(S(=O)(=O)Nc3ccc(F)c(F)c3)c(Br)cc2N(C)C1=O (centres unmarked) [BC19926] | ≥ 25 µM

Source: US20240000806A1, “METHODS AND MATERIALS FOR INHIBITING CB1 ACTIVITY” (University of Pittsburgh - Of the Commonwealth System of …, priority 2020, published 2024)
